From patent publication US9388148B2, “Acylaminocycloalkyl compounds suitable for treating disorders that respond to modulation of dopamine D3 receptor” (AbbVie Deutschland GmbH & Co. KG, priority 2013, dated 2016) come the findings set out here.

Series [1] in a line: Determination of the microsomal half-life / microsomal clearance. Type of series: in vitro ADME. Conditions: pH 7.4; human liver microsomes, 0.5 μM test substance, 0.25 mg protein/ml, NADPH, 37° C.; read-out: Human mCl (mikrosomal clearance). The procedure:
The metabolic stability of the compounds of the invention was determined in the following assay.
The test substances were incubated in a concentration of 0.5 μM as follows:
0.5 μM test substance are preincubated together with liver microsomes from different species (from rat, human or other species) (0.25 mg of microsomal protein/ml) in 0.05 M potassium phosphate buffer of pH 7.4 in microtiter plates at 37° C. for 5 min. The reaction is started by adding NADPH (1 mg/mL). After 0, 5, 10, 15, 20 and 30 min, 50 μl aliquots are removed, and the reaction is immediately stopped and cooled with the same volume of acetonitrile. The samples are frozen until analyzed. The remaining concentration of undegraded test substance is determined by MSMS. The half-life (T1/2) is determined from the gradient of the signal of test substance/unit time plot, it being possible to calculate the half-life of the test substance, assuming first order kinetics, from the decrease in the concentration of the compound with time. The microsomal clearance (mC1) is calculated from mC1=1n2/T1/2/(content of microsomal protein in mg/ml)×1000 [ml/min/mg] (modified from references: Di, The Society for Biomoleculur Screening, 2003, 453-462; Obach, DMD, 1999 vol 27. N 11, 1350-1359).

The target of series [2] is T1, human dopamine D2L receptors (long isoform) (Homo sapiens, UniProt P14416).
T1 construct: expressed in transfected cells; host or cells: HEK-293
T1 sequence (P14416 whole entry, canonical isoform): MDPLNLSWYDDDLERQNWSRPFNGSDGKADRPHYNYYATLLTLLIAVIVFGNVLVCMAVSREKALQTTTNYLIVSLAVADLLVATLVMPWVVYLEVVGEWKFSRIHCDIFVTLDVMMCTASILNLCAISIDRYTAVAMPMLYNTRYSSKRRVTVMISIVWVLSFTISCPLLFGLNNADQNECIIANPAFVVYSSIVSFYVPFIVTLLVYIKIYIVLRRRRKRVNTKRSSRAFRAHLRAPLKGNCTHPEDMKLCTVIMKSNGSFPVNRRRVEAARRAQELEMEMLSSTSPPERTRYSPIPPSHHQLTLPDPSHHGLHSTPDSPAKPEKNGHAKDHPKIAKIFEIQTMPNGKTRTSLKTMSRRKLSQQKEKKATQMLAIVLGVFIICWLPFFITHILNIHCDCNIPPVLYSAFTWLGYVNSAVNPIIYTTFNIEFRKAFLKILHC
Description: Dopamine D2L receptor binding ([125I]iodospiperone displacement). Conditions: selectivity ratio, human D2L vs human D3 binding. The procedure: The substance to be tested was either dissolved in methanol/Chremophor® (BASF SE) or in dimethyl sulfoxide and then diluted with water to the desired concentration.
Each assay mixture was run in triplicate. • The incubation buffer contained 50 mM tris, 120 mM NaCl, 5 mM KCl, 2 mM CaCl2, 2 mM MgCl2 and 0.1% bovine serum albumin, 10 μM quinolone and 0.1% ascorbic acid (prepared fresh daily). […] Each assay mixture was run in triplicate. • The incubation buffer contained 50 mM tris, 120 mM NaCl, 5 mM KCl, 2 mM CaCl2, 2 mM MgCl2 and 0.1% bovine serum albumin. The buffer was adjusted to pH 7.4 with HCl. c) Measurement and analysis: • After having been incubated at 25° C. for 60 minutes, the assay mixtures were filtered through a Whatman GF/B glass fiber filter under vacuum using a cell col-lecting device. The filters were transferred to scintillation viols using a filter transfer system. After 4 ml of Ultima Gold® (Packard) have been added, the samples were shaken for one hour and the radioactivity was then counted in a Beta-Counter (Packard, Tricarb 2000 or 2200CA).

`CC(C)(C)c1nc(N2CCN(CC[C@H]3CC[C@@H](NC(=O)[C@H]4CC[C@H](O)CC4)CC3)CC2)cc(C2(C)CC2)n1` [Compound 28, Trans-N-[cis-4-[2-[4-[2-tert-butyl-6-(1-methylcyclopropyl)pyrimidin-4-yl]piperazin-1-yl]ethyl]cyclohexyl]-4-hydroxy-cyclohexanecarboxamide]: the microsomal CLint at 0.5 μM in series [1] was in the range of 20 to 120 µL/min/mg. In addition, the “D2/D3, Ki (D2L)/Ki (D3)” value in series [2] is given as “++ (++ >20)”. The corresponding values for `COCCc1cc(N2CCN(CC[C@H]3CC[C@H](NC(=O)[C@H]4CC[C@H](OC)CC4)CC3)CC2)nc(C(C)(C)C)n1` [Compound 24, trans-N-[trans-4-[2-[4-[2-tert-butyl-6-(2-methoxyethyl)pyrimidin-4-yl]piperazin-1-yl]ethyl]cyclohexyl]-4-methoxy-cyclohexanecarboxamide] are more than 120 µL/min/mg and “++ (++ >20)”.

With `CC(C)(C)c1nc(N2CCN(CCC3CCC(NC(=O)C4CCC(O)CC4)CC3)CC2)cc(C2(C)CC2)n1` (centres unmarked) [Compound 27, N-[4-[2-[4-[2-tert-butyl-6-(1-methylcyclopropyl)pyrimidin-4-yl]piperazin-1-yl]ethyl]cyclohexyl]-4-hydroxy-cyclohexanecarboxamide], the microsomal CLint at 0.5 μM in series [1] fell in the range of 20 to 120 µL/min/mg. In addition, in series [2], the “D2/D3, Ki (D2L)/Ki (D3)” value is “++ (++ >20)”. Regarding `CC(C)(C)c1nc(C2CCC2)cc(N2CCN(CC[C@H]3C[C@H](NC(=O)[C@H]4CC[C@@H](O)CC4)C3)CC2)n1.O=C(O)C(F)(F)F` [Compound 16, Cis-N-[trans-3-[2-[4-(2-tert-butyl-6-cyclobutyl-pyrimidin-4-yl)piperazin-1-yl]ethyl]cyclobutyl]-4-hydroxy-cyclohexanecarboxamide; 2,2,2-trifluoroacetic acid], in series [1], the microsomal CLint at 0.5 μM is more than 120 µL/min/mg. In addition, the “D2/D3, Ki (D2L)/Ki (D3)” value in series [2] is “++ (++ >20)”.

`CC(C)(C)c1nc(C2CCC2)cc(N2CCN(CC[C@H]3C[C@H](NC(=O)[C@H]4CC[C@H](O)CC4)C3)CC2)n1` [Compound 9, Trans-N-[trans-3-[2-[4-(2-tert-butyl-6-cyclobutyl-pyrimidin-4-yl)piperazin-1-yl]ethyl]cyclobutyl]-4-hydroxy-cyclohexanecarboxamide]: the microsomal CLint at 0.5 μM in series [1] is 20 to 120 µL/min/mg. Moreover, the “D2/D3, Ki (D2L)/Ki (D3)” value in series [2] is given as “+++ (+++ >50)”.

For `COCCc1cc(N2CCN(CC[C@H]3CC[C@H](NC(=O)[C@H]4CC[C@H](O)CC4)CC3)C[C@H]2C)nc(C(C)(C)C)n1` [Compound 34, trans-N-[trans-4-[2-[(3R)-4-[2-tert-butyl-6-(2-methoxyethyl)pyrimidin-4-yl]-3-methyl-piperazin-1-yl]ethyl]cyclohexyl]-4-hydroxy-cyclohexanecarboxamide], the microsomal CLint at 0.5 μM in series [1] was 20 to 120 µL/min/mg. For the same molecule, the “D2/D3, Ki (D2L)/Ki (D3)” value in series [2] is “+++ (+++ >50)”. `CC(C)c1cc(N2CCN(CCC3CCC(NC(=O)C4CCC(O)CC4)CC3)CC2)nc(C(C)(C)C)n1` (centres unmarked) [Compound 31, N-[4-[2-[4-(2-tert-butyl-6-isopropyl-pyrimidin-4-yl)piperazin-1-yl]ethyl]cyclohexyl]-4-hydroxy-cyclohexanecarboxamide]: in series [1], the microsomal CLint at 0.5 μM is 20 to 120 µL/min/mg. In addition, the “D2/D3, Ki (D2L)/Ki (D3)” value in series [2] is recorded as “++ (++ >20)”. The corresponding values for `CC(C)(C)c1nc(C2CCC2)cc(N2CCN(CC[C@H]3CC[C@H](NC(=O)[C@H]4CC[C@H](O)CC4)CC3)CC2)n1` [Compound 1, trans-N-[trans-4-[2-[4-(2-tert-butyl-6-cyclobutyl-pyrimidin-4-yl)piperazin-1-yl]ethyl]cyclohexyl]-4-hydroxy-cyclohexanecarboxamide] are 20 to 120 µL/min/mg and “+++ (+++ >50)”. The corresponding values for `CC(C)(C)c1nc(C(F)F)cc(N2CCN(CC[C@H]3CC[C@@H](NC(=O)[C@H]4CC[C@H](O)CC4)CC3)CC2)n1` [Compound 30, Trans-N-[cis-4-[2-[4-[2-tert-butyl-6-(difluoromethyl)pyrimidin-4-yl]piperazin-1-yl]ethyl]cyclohexyl]-4-hydroxy-cyclohexanecarboxamide] are 20 to 120 µL/min/mg and “++ (++ >20)”. Taken in the same sequence, the figures for `COCCc1cc(N2CCN(CC[C@H]3C[C@H](NC(=O)[C@H]4CC[C@H](O)CC4)C3)CC2)nc(C(C)(C)C)n1.O=C(O)C(F)(F)F` [Compound 7, Trans-N-[trans-3-[2-[4-[2-tert-butyl-6-(2-methoxyethyl)pyrimidin-4-yl]piperazin-1-yl]ethyl]cyclobutyl]-4-hydroxy-cyclohexanecarboxamide; 2,2,2-trifluoroacetic acid] were 20 to 120 µL/min/mg and “+++ (+++ >50)”. As to `CC(C)(C)c1nc(C2CCC2)cc(N2CCN(CC[C@H]3CC[C@H](NC(=O)C4CC(O)(C(F)(F)F)C4)CC3)CC2)n1` (relative stereo) [Compound 19, N-[trans-4-[2-[4-(2-tert-butyl-6-cyclobutyl-pyrimidin-4-yl)piperazin-1-yl]ethyl]cyclohexyl]-3-hydroxy-3-(trifluoromethyl)cyclobutanecarboxamide], the microsomal CLint at 0.5 μM in series [1] was in the range of 20 to 120 µL/min/mg. Besides, the “D2/D3, Ki (D2L)/Ki (D3)” value in series [2] is reported as “+ (+ >10)”.

Consider `CC(C)c1cc(N2CCN(CC[C@H]3CC[C@H](NC(=O)[C@H]4CC[C@H](O)CC4)CC3)CC2)nc(C(C)(C)C)n1` [Compound 32, Trans-N-[trans-4-[2-[4-(2-tert-butyl-6-isopropyl-pyrimidin-4-yl)piperazin-1-yl]ethyl]cyclohexyl]-4-hydroxy-cyclohexanecarboxamide], for which the microsomal CLint at 0.5 μM in series [1] is 20 to 120 µL/min/mg. In series [2], the “D2/D3, Ki (D2L)/Ki (D3)” value was “++ (++ >20)”. Taken in the same sequence, the figures for `CC(C)(C)c1cc(N2CCN(CC[C@H]3CC[C@H](NC(=O)[C@H]4CC[C@H](O)CC4)CC3)CC2)nc(C(C)(C)C)n1` [Compound 20, trans-N-[trans-4-[2-[4-(2,6-ditert-butylpyrimidin-4-yl)piperazin-1-yl]ethyl]cyclohexyl]-4-hydroxy-cyclohexanecarboxamide] were 20 to 120 µL/min/mg and “++ (++ >20)”. In the case of `COCCc1cc(N2CCN(CC[C@H]3C[C@@H](NC(=O)[C@H]4CC[C@@H](O)CC4)C3)CC2)nc(C(C)(C)C)n1` [Compound 12, Cis-N-[cis-3-[2-[4-[2-tert-butyl-6-(2-methoxyethyl)pyrimidin-4-yl]piperazin-1-yl]ethyl]cyclobutyl]-4-hydroxy-cyclohexanecarboxamide], the microsomal CLint at 0.5 μM in series [1] fell in the range of 20 to 120 µL/min/mg. Besides, the “D2/D3, Ki (D2L)/Ki (D3)” value in series [2] is “+++ (+++ >50)”. As to `COCCc1cc(N2CCN(CC[C@H]3CC[C@H](NC(=O)C4CC(O)(C(F)(F)F)C4)CC3)CC2)nc(C(C)(C)C)n1` (relative stereo) [Compound 25, N-[trans-4-[2-[4-[2-tert-butyl-6-(2-methoxyethyl)pyrimidin-4-yl]piperazin-1-yl]ethyl]cyclohexyl]-3-hydroxy-3-(trifluoromethyl)cyclobutanecarboxamide], the microsomal CLint at 0.5 μM in series [1] was more than 120 µL/min/mg. For the same molecule, the “D2/D3, Ki (D2L)/Ki (D3)” value in series [2] is recorded as “++ (++ >20)”. Taken in the same sequence, the figures for `CC(C)(C)c1nc(C2CCC2)cc(N2CCN(CC[C@H]3C[C@H](NC(=O)[C@H]4C[C@H](O)C4)C3)CC2)n1.O=C(O)C(F)(F)F` [Compound 39, trans-N-[trans-3-[2-[4-(2-tert-butyl-6-cyclobutyl-pyrimidin-4-yl)piperazin-1-yl]ethyl]cyclobutyl]-3-hydroxy-cyclobutanecarboxamide; 2,2,2-trifluoroacetic acid] were less than 20 µL/min/mg and “+++ (+++ >50)”. Taken in the same sequence, the figures for `CC(C)(C)c1nc(C2CCC2)cc(N2CCN(CC[C@H]3CC[C@H](NC(=O)[C@H]4C[C@@H](O)C4)CC3)CC2)n1` [Compound 13, Cis-N-[trans-4-[2-[4-(2-tert-butyl-6-cyclobutyl-pyrimidin-4-yl)piperazin-1-yl]ethyl]cyclohexyl]-3-hydroxy-cyclobutanecarboxamide] were more than 120 µL/min/mg and “++ (++ >20)”.

Take `COCc1cc(N2CCN(CC[C@H]3CC[C@H](NC(=O)[C@H]4C[C@@H](O)C4)CC3)CC2)nc(C(C)(C)C)n1` [Compound 40, cis-N-[trans-4-[2-[4-[2-tert-butyl-6-(methoxymethyl)pyrimidin-4-yl]piperazin-1-yl]ethyl]cyclohexyl]-3-hydroxy-cyclobutanecarboxamide]: the microsomal CLint at 0.5 μM in series [1] lay in the range of 20 to 120 µL/min/mg.
